From the supplement of paper PMC11061612

Tests used:
Assay in all cases: combination Emax (second highest fraction inhibited in the dose matrix, 72 h); higher = more inhibition; extreme values may be limits of the assay
A2058 (Melanoma) = tested on: A2058 (Melanoma)
How it was run: (§1)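 Cell lines in DMEM/F12 or RPMI with 10% FBS were plated in 1536-well plates, held 24 hours at 37°C, 5% CO2, then given two-drug dose matrices for 72 hours (DMSO typically 0.2%). Viability was read by CellTiter-Glo 2.0 luminescence and scaled as inhibition from 0 (vehicle wells) to 1 (blank wells). Combination Emax is the second-highest inhibition in the matrix; Bliss excess is observed combination effect minus expected EA + EB − EA·EB, EA and EB being single-agent effects.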

SF268 (Low Grade Glioma) = tested on: SF268 (Low Grade Glioma)
How it was run: as §1

[1] = tested on: RCM-1 (Colorectal Carcinoma)
How it was run: as §1

LN-229 (Glioblastoma) = tested on: LN-229 (Glioblastoma)
How it was run: as §1

[2] = tested on: HSC-39 (Gastric Carcinoma)
How it was run: as §1

[3] = tested on: OAW-42 (Ovarian Carcinoma)
How it was run: as §1

[4] = tested on: RKN (Other Solid Carcinomas)
How it was run: as §1

[5] = tested on: CAL-62 (Thyroid Gland Carcinoma)
How it was run: as §1

[6] = tested on: GP5d (Colorectal Carcinoma)
How it was run: as §1

[7] = tested on: LXF-289 (Lung Adenocarcinoma)
How it was run: as §1

[8] = tested on: HCT-15 (Colorectal Carcinoma)
How it was run: as §1

[9] = tested on: 23132-87 (Gastric Carcinoma)
How it was run: as §1

WM793B (Melanoma) = tested on: WM793B (Melanoma)
How it was run: as §1

[10] = tested on: CAL-120 (Breast Carcinoma)
How it was run: as §1

[11] = tested on: LB996-RCC (Kidney Carcinoma)
How it was run: as §1

[12] = tested on: LK-2 (Squamous Cell Lung Carcinoma)
How it was run: as §1

[13] = tested on: KE-37 (T-Lymphoblastic Leukemia)
How it was run: as §1

[14] = tested on: SK-PN-DW (Other Solid Carcinomas)
How it was run: as §1

[15] = tested on: TE-8 (Esophageal Squamous Cell Carcinoma)
How it was run: as §1

[16] = tested on: RERF-GC-1B (Gastric Carcinoma)
How it was run: as §1

Row | SMILES | combination Emax (A2058 (Melanoma)) | combination Emax (SF268 (Low Grade Glioma)) | combination Emax [1] | combination Emax (LN-229 (Glioblastoma)) | combination Emax [2] | combination Emax [3] | combination Emax [4] | combination Emax [5] | combination Emax [6] | combination Emax [7] | combination Emax [8] | combination Emax [9] | combination Emax (WM793B (Melanoma)) | combination Emax [10] | combination Emax [11] | combination Emax [12] | combination Emax [13] | combination Emax [14] | combination Emax [15] | combination Emax [16]
1 | C=CCn1c(=O)c2cnc(Nc3ccc(N4CCN(C)CC4)cc3)nc2n1-c1cccc(C(C)(C)O)n1 [AZD1775] + C1CN(CCC1(C(=O)N[C@@H](CCO)C2=CC=C(C=C2)Cl)N)C3=NC=NC4=C3C=CN4 [Capivasertib] (first compound max 3 µM, partner max 3 µM) | 0.886 | 0.456 | 0.628 | 0.419 | 0.958 | 0.467 | 0.762 | 0.868 | 0.973 | 0.836 | 0.896 | 0.829 | 0.606 | 0.727 | 0.783 | 0.941 | 1 | 0.783 | – | –
2 | CN(CCO)CC[C@H](CSc1ccccc1)Nc1ccc(S(=O)(=O)NC(=O)c2ccc(N3CCC([C@@H](O)c4ccccc4-c4ccc(Cl)cc4)CC3)cc2)cc1S(=O)(=O)C(F)(F)F [AZD4320] + C1CN(CCC1(C(=O)N[C@@H](CCO)C2=CC=C(C=C2)Cl)N)C3=NC=NC4=C3C=CN4 [Capivasertib] (first compound max 1 µM, 7x7, partner max 3 µM) | 0.191 | 0.211 | 0.343 | 0 | 0.328 | 0.282 | 0.154 | 0.152 | 0.72 | 0.173 | 0.174 | 0.221 | 0.281 | – | 0.494 | 0.655 | 1 | 0.482 | 0.349 | 0.496
3 | Cc1cc2ncnn2cc1Nc1ncc2c(n1)n(C1CCOCC1)c(=O)n2C [AZD7648] + O=C(c1cc(Cc2n[nH]c(=O)c3ccccc23)ccc1F)N1CCN(C(=O)C2CC2)CC1 [Olaparib] (first compound max 10 µM, 7x7, partner max 10 µM) | 0.0679 | 0.117 | 0.125 | 0.0989 | 0.267 | – | 0.189 | 0.377 | 0.28 | 0.177 | 0.501 | 0.239 | 0.341 | 0.149 | 0.423 | 0.335 | 0.585 | 0.395 | 0.184 | 0.228
4 | Cc1nc(Nc2ncc(C(=O)Nc3c(C)cccc3Cl)s2)cc(N2CCN(CCO)CC2)n1 [Dasatinib] + CC(=O)Nc1cccc(-n2c(=O)n(C3CC3)c(=O)c3c(Nc4ccc(I)cc4F)n(C)c(=O)c(C)c32)c1 [Trametinib] (first compound max 2 µM, 7x7, partner max 1 µM) | 0.644 | – | 0.798 | 0.548 | 0.498 | 0.722 | 0.712 | 0.955 | 0.697 | 0.986 | 0.71 | 0.315 | 0.705 | 0.525 | 0.893 | 0.63 | 0.32 | 0.141 | 0.865 | 1
5 | COc1cccc2c1C(=O)c1c(O)c3c(c(O)c1C2=O)C[C@@](O)(C(=O)CO)C[C@@H]3O[C@H]1C[C@H](N)[C@H](O)[C@H](C)O1 [Doxorubicin] + Cc1cc2ncnn2cc1Nc1ncc2c(n1)n(C1CCOCC1)c(=O)n2C [AZD7648] (first compound max 1 µM, 7x7, partner max 10 µM) | 0.583 | 0.538 | 0.605 | 0.609 | 0.867 | – | 0.693 | 0.817 | 0.693 | 0.4 | 0.742 | 0.82 | 0.801 | 0.47 | 0.796 | 0.632 | 1 | 0.814 | 0.774 | 0.779
6 | CS(=O)(=O)CCNCc1ccc(-c2ccc3ncnc(Nc4ccc(OCc5cccc(F)c5)c(Cl)c4)c3c2)o1 [Lapatinib] + NC1(c2ccc(-c3nc4ccn5c(=O)[nH]nc5c4cc3-c3ccccc3)cc2)CCC1 [MK-2206] (first compound max 10 µM, 7x7, partner max 10 µM) | 0.982 | – | 0.514 | 0.207 | 0.933 | 0.819 | 0.346 | 0.721 | – | – | – | – | – | – | – | 0.892 | – | 0.933 | 0.52 | 0.943
7 | COc1cccc(OCCCN)c1-c1cc(Nc2cnc(C#N)cn2)n[nH]1 [Prexasertib] + C=CCn1c(=O)c2cnc(Nc3ccc(N4CCN(C)CC4)cc3)nc2n1-c1cccc(C(C)(C)O)n1 [AZD1775] (first compound max 1 µM, partner max 1 µM) | 0.519 | 0.561 | 0.822 | 0.738 | 1 | – | 0.833 | 0.86 | 1 | 0.834 | 0.972 | 0.939 | 0.938 | 0.685 | 0.877 | 0.92 | 1 | 0.968 | 0.966 | 0.887
8 | COc1cccc(OCCCN)c1-c1cc(Nc2cnc(C#N)cn2)n[nH]1 [Prexasertib] + CN(C)CCCOc1ccc(-c2ccc3ncc4c(c3c2)n(C2CCOCC2)c(=O)n4C)cn1 [AZD0156] (first compound max 1 µM, 7x7, partner max 1 µM) | 0.391 | 0.493 | 0.818 | 0.725 | 1 | – | 0.67 | 0.735 | 0.983 | 0.772 | 0.92 | 0.926 | 0.903 | 0.456 | 0.712 | 0.726 | 1 | 0.948 | 0.914 | 0.616
9 | COc1cccc(OCCCN)c1-c1cc(Nc2cnc(C#N)cn2)n[nH]1 [Prexasertib] + C[C@@H]1COCCN1C2=NC(=NC(=C2)C3(CC3)[S@](=N)(=O)C)C4=C5C=CNC5=NC=C4 [AZD6738] (first compound max 1 µM, 7x7, partner max 10 µM) | 0.436 | 0.514 | 0.862 | 0.791 | 1 | – | 0.577 | 0.785 | 0.967 | 0.762 | 0.95 | 0.908 | 0.907 | 0.446 | 0.786 | 0.689 | 1 | 0.937 | 0.933 | 0.543
10 | COc1cccc(OCCCN)c1-c1cc(Nc2cnc(C#N)cn2)n[nH]1 [Prexasertib] + Cc1cc2ncnn2cc1Nc1ncc2c(n1)n(C1CCOCC1)c(=O)n2C [AZD7648] (first compound max 1 µM, 7x7, partner max 10 µM) | 0.444 | 0.48 | 0.796 | 0.725 | 1 | – | 0.658 | 0.776 | 0.964 | 0.724 | 0.935 | 0.939 | 0.866 | 0.512 | 0.776 | 0.755 | 1 | 0.931 | 0.937 | 0.552
11 | COc1cccc(OCCCN)c1-c1cc(Nc2cnc(C#N)cn2)n[nH]1 [Prexasertib] + O=C(c1cc(Cc2n[nH]c(=O)c3ccccc23)ccc1F)N1CCN(C(=O)C2CC2)CC1 [Olaparib] (first compound max 1 µM, 7x7, partner max 10 µM) | 0.508 | 0.623 | 0.596 | 0.551 | 1 | – | 0.678 | 0.779 | 0.945 | 0.783 | 0.883 | 0.87 | 0.873 | 0.526 | 0.759 | 0.799 | 1 | 0.937 | 0.902 | 0.552
12 | COc1cc2c(cc1OCCCCCOc1cc3c(cc1OC)C(=O)N1C=C(C)C[C@H]1C=N3)N=C[C@@H]1CC(C)=CN1C2=O [SG3199] + O=C(c1cc(Cc2n[nH]c(=O)c3ccccc23)ccc1F)N1CCN(C(=O)C2CC2)CC1 [Olaparib] (first compound max 0.001 µM, 7x7, partner max 10 µM) | 0.141 | 0.115 | 0.0628 | 0.0777 | 0.185 | – | 0.0618 | 0.102 | 0.189 | 0.119 | 0.264 | 0.3 | 0.194 | 0.142 | 0.282 | 0.28 | 0.348 | 0.393 | 0.109 | 0.245
13 | CCc1c2c(nc3ccc(O)cc13)-c1cc3c(c(=O)n1C2)COC(=O)[C@]3(O)CC [SN-38] + CN(C)CCCOc1ccc(-c2ccc3ncc4c(c3c2)n(C2CCOCC2)c(=O)n4C)cn1 [AZD0156] (first compound max 0.3 µM, 7x7, partner max 1 µM) | 0.401 | 0.902 | 0.86 | 0.283 | 0.964 | – | 0.631 | 0.872 | 0.655 | 0.599 | 0.943 | 0.845 | 0.85 | 0.381 | 0.898 | 0.584 | 1 | 0.92 | 0.69 | 0.788
